# Data published in ChEMBL document CHEMBL1681745, “Synthesis and photophysical properties of new SNARF derivatives as dual emission pH sensors” (Bioorg Med Chem Lett, 2011).
# Experiments:
# [1] = system: V79; experiment: Cellular uptake in chinese hamster V79 cells at 10 uM after 1 hr by flow cytometry; format: ADME, cell-based, Cricetulus griseus; conditions: v79, 1 h
# [2] = Dissociation constant, pKa of the compound by UV spectrum analysis; format: physicochemical
Drug uptake [1],pKa [2],Structure (SMILES)
Active,7.62,C[N+](C)=c1ccc2c(-c3ccccc3C(=O)O)c3ccc4cc(O)ccc4c3oc-2c1
Active,7.38,CN(C)c1ccc2c(c1)Oc1c(ccc3cc(O)ccc13)C21OC(=O)c2c(F)c(F)c(F)c(F)c21 (stereo unspecified)
Active,7.9,CN(C)c1ccc2c(c1)Oc1c(ccc3cc(O)ccc13)C21OC(=O)c2c(Cl)c(Cl)c(Cl)c(Cl)c21 (stereo unspecified)
